Reference: article PMC7998250, “Temperate Zone Plant Natural Products—A Novel Resource for Activity against Tropical Parasitic Diseases” (Pharmaceuticals, 2021)
Where two headings read alike, the source gives them in different places.

What was measured:
[1] = test system: L. mexicana axenic amastigotes; experiment: Initial screen, L. mexicana axenic amastigotes, Alamar Blue; type: cell-based, Leishmania mexicana; details: for initial hit against L. mexicana: growth inhibited by ≥80%; for activity at 2 µM / inhibition of growth at 2 µM: Leishmania mexicana; for inhibition of growth at 2 µM: read-out: initial hit L.m
In short: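 Purified temperate plant natural products from a commercial library (1 mg/mL in DMSO) were tested against Leishmania mexicana axenic amastigotes at a final 2 μM. Parasites were seeded at 1 × 10^6 cells/mL in 96-well plates containing 200 μL culture and incubated 72 h. Growth was measured by Alamar Blue and normalised to DMSO controls (1% v/v), with triplicates over two biological replicates (n = 6).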

[2] = test system: P. falciparum Dd2Luc intraerythrocytic trophozoites; experiment: Initial screen, intraerythrocytic P. falciparum, Malaria SYBR-Green I fluorescence assay; type: cell-based, Plasmodium falciparum; details: for activity at 2 µM / inhibition of growth at 2 µM: Plasmodium falciparum, 48 h; for initial hit against P. falciparum: 2 μM, growth reduced by ≥50%; for inhibition of growth at 2 µM: read-out: initial hit P.f
In short: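 L. mexicana axenic amastigotes at 1 × 10^6 cells/mL exposed 72 h to compounds at 2 μM, growth read by Alamar Blue; P. falciparum trophozoites at 0.5% parasitaemia, 2% haematocrit, 48 h at 2 μM, SYBR-Green I read-out. Growth normalised to 1% DMSO; hits ≥50% growth reduction.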

[3] = test system: L. mexicana axenic amastigotes; experiment: Concentration-response EC50, L. mexicana axenic amastigotes (WT); type: cell-based, Leishmania mexicana
Source text: Initial hits from the parasite panel screen were taken forward in log concentration versus normalised response assays to estimate the half maximal effective concentration (EC50) in hit species as well as the half maximal cytotoxic concentrations (CC50) in the human hepatoma cell line HepG2 as a preliminary test for selectivity. Using CC50/EC50 to define the selectivity index (SI), the selectivity for each compound in a defined species compared to a human cell line was estimated and compared to the EC50 (Figure 3).
EC50 values were determined by serial two-fold dilution of each compound in 96 well plates. Culture conditions and viability assays were as stated for the initial screen, with some exceptions. L. mexicana and L. donovani axenic amastigotes were seeded at 2 × 10^6 cell/s mL, T. brucei and T. evansi were seeded at 2 × 10^5 cells/mL. For cytotoxicity studies, HepG2 cells were seeded at 1 × 10^5 cells/mL, incubated for 48 h and viability was assessed using the Alamar Blue assay [66, 67]. […] Normalised growth and viability data (compared to untreated controls) were plotted against Log10 concentration to estimate EC50 in GraphPad (Prism v6).

[4] = in vitro; details: human
In short: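 Human hepatoma cells seeded at 1 × 10^5 cells/mL with two-fold serial compound dilutions, incubated 48 h at 37 °C, 5% CO2 in DMEM/10% FBS. Viability read by Alamar Blue. CC50 estimated from viability normalised to untreated controls versus log concentration.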

[5] = Cytotoxicity CC50, differentiated THP-1, Alamar Blue; type: cell-based, human; details: human
Source text: The four lanosterone-like sterols derived from the Noble Fir Abies procera (700022, 700107, 700136) and the Grand Fir Abies grandis (700240) were the only initial compounds taken forward for L. mexicana due to their nanomolar activity and apparent low cytotoxicity (Figure 3a). […] Understanding the impact of the ring-opened lactone head group in this compound compared to the other three warrants further analysis in exploring their structure-activity relationships. These four sterols were also tested for growth inhibitory activity against L. donovani axenic amastigotes. […] As Leishmania spp. amastigotes typically reside with macrophages, further cytotoxicity assays with these sterols were performed against an activated monocyte cell line (THP-1) (Figure 4b). […]

[6] = read-out: % growth L. mexicana, mean % growth compared to a normalised control with same concentration of DMSO solvent, initial screen
[7] = read-out: %growth P. falciparum, mean % growth compared to a normalised control with same concentration of DMSO solvent, initial screen
[8] = Leishmania mexicana, 72 h, read-out: L. mexicana EC50, axenic amastigotes, 72 h
[9] = initial screen, compared to a normalised control with same concentration of DMSO solvent
[10] = read-out: mean % growth, L. mexicana, initial screen, compared to a normalised control with same concentration of DMSO solvent
[11] = read-out: mean % growth, P. falciparum, initial screen, compared to a normalised control with same concentration of DMSO solvent
[12] = differentiated THP-1, 48 h, read-out: THP1 CC50

| SMILES | initial hit against L. mexicana ([1]; 2 μM) | activity at 2 µM [1, 6] [%] | inhibition of growth at 2 µM ([1]; 2 μM, x = initial hit) [%] | activity at 2 µM [2, 7] [%] | EC50 [3, 8] [µM] | EC50 ([3]; Leishmania mexicana, read-out: WT EC50, L. mexicana WT axenic amastigotes) [µM] | CC50 at 48 h ([4]; pH 7, HepG2 CC50) [µM] | CC50 at 48 h ([5]; THP1 CC50) [µM] | initial hit against P. falciparum [2] | inhibition of growth at 2 µM [2] [%] | CC50 at 48 h ([4]; pH 7, HepG2 CC50, 48 h) [µM] | CC50 at 48 h ([5]; THP-1 cells differentiated into macrophages with PMA, differentiated THP-1, 48 h, read-out: THP1 CC50) [µM] | mean % growth, L. mexicana [1, 9] [%] | mean % growth, P. falciparum [2, 9] [%] | EC50 ([3]; read-out: L. mexicana EC50, axenic amastigotes, 72 h) [µM] | inhibition of growth at 2 µM [1] [%] | activity at 2 µM [1, 10] [%] | activity at 2 µM [2, 11] [%] | CC50 at 48 h [5, 12] [µM] |
| --- | --- | --- | --- | --- | --- | --- | --- | --- | --- | --- | --- | --- | --- | --- | --- | --- | --- | --- | --- |
| CC1=CC(O)(CC(C)C2(C)CC=C3C4=CCC5C(C)(C)C(O)CCC5(C)C4CCC32C)OC1=O (stereo not shown) [Compound 700022] | initial hits | 0.54 | > 80 | 105 | 0.25 | 0.24 | 28 | 17 |  |  |  |  |  |  |  |  |  |  |  |
| CC1OC(OC2C(OC(=O)C3CC[C@@H]4[C@H](C3)OC3(CC(OC(=O)/C=C/c5ccccc5)[C@@H](C)CO3)C43CO3)OC(CO)C(O)C2O)C(O)C(O)C1O (stereo partly shown) [Compound 700042] |  | 79.1 |  | 28.9 |  |  |  |  | initial hits | > 50 | 2.5 |  |  |  |  |  |  |  |  |
| CC1=CC(O)(CC(C)C2(C)CCC3C4=CCC5C(C)(CCC(O)C5(C)C)C4=CCC32C)OC1=O (stereo not shown) [Compound 700107] | initial hits | 8.1 | > 80 | 96.8 | 0.26 |  | 45 | 27 |  |  |  |  |  |  |  |  |  |  |  |
| CC1=CC(O)(CC(C)C2(C)CC=C3C4=CCC5C(C)(C)C(=O)CCC5(C)C4CCC32C)OC1=O (stereo not shown) [Compound 700136] | initial hits | -0.4 | > 80 | 99.9 | 0.21 |  | 28 | 17 |  |  |  |  |  |  |  |  |  |  |  |
| C/C(=C/C(=O)CC(C)C1CCC2(C)C3=CCC4C(C)(C)C(=O)CCC4(C)C3CCC12C)C(=O)O (stereo not shown) [Compound 700240] | initial hits | -10.1 | > 80 | 77.9 | 0.51 |  | 47 |  |  |  |  | 13.5 |  |  |  |  |  |  |  |
| C=C1C(=O)OC2CC(C)C3C=CC(=O)C3(C)C(OC(C)=O)C12 (stereo not shown) [Compound 701155] | initial hits |  |  |  |  |  |  |  |  |  |  |  | -0.28 | 55.1 | 0.23 |  |  |  |  |
| C=C1C(=O)OC2CC(C)C3C=CC(=O)C3(C)C(OC(=O)C(C)C)C12 (stereo not shown) [Compound 701157] | initial hits |  |  |  | 0.2 |  |  |  |  |  | 1.3 |  |  |  |  | > 80 | 0.07 | 51.9 | 0.73 |
| C=C1C(=O)OC2CC(C)C3C=CC(=O)C3(C)C(OC(=O)C(C)CC)C12 (stereo not shown) [Compound 701158] | initial hits |  |  |  | 0.24 |  |  |  | initial hits | > 50 | 0.8 |  |  |  |  | > 80 | -1.7 | 49 | 0.29 |
| C=C1C(=O)OC2CC(C)C3C(OC)CC(=O)C3(C)C(OC(=O)C(C)CC)C12 (stereo not shown) [Compound 701159] | initial hits |  | > 80 |  | 0.87 |  |  |  |  |  | 3.4 |  |  |  |  |  | 1.5 | 83.7 | 1.42 |
